Data taken from patent US10940201B2, “Nucleic acid derivative having immunostimulatory activity” (Shionogi & Co., Ltd., priority 2015, dated 2021).

Assays:
[1] = system: TRP2-specific CTL; assay: CTL inducibility of TRP2 peptide vaccine with adjuvant (tetramer staining); type: in vivo, C57BL/6JJcl mice
Method: C57BL/6JJcl mice (6 to 8 weeks old) were purchased from CLEA Japan, Inc.
an adjuvant of the present invention or the well-known CpG ODN
The specific immunity was induced by vaccinating a mouse twice at 7 days intervals. Each vaccine was that 100 μg of TRP2 peptide, and 1.57 or 4.71 nmol of an adjuvant of the present invention or well-known CpG ODN, were dissolved in 1×PBS. 100 μL of the vaccine was administered subcutaneous injection on the flank of a mouse.
100 μL of the emulsion vaccine was administered subcutaneous injection on the flank of a mouse twice at 7 days intervals.
On 7 days after second vaccination, the blood was collected, red blood cells was removed by BD Pharm Lyse (BD pharmingen), and the white blood cells were suspended in FACS buffer (1% fetal bovine serum, 2 mM PBS with EDTA). Anti-mouse CD16/32 monoclonal antibody (BioXcell) was added thereto, and Fc receptor blocking was carried out at 4° C. for 30 minutes. […] Then, staining was carried out with DAPI (Invitrogen) and the cells were washed twice with FACS buffer. It was resuspended in FACS buffer and analyzed by FACS verse Flow Cytometer (BD bioscience) and FAC Suite software (BD bioscience). For analysis, after DAPI negative fraction was gated, white blood cells fraction were provided using forward and side-way scattering as indicators. In the white blood cells fraction, both positive cells of Alexa 647-CD8 and PE-H-2Kb Tetramer were defined as CTLs. CTL ratio in white blood cells was used for evaluation.
After calculation of the average CTL inducibility of each group per experiment, the ratio against average value of CTL inducibility of ssCpG ODN, ODN1826 (SEQ-1) or ODN2006 (SEQ-49) as a control was calculated.
In the case of an adjuvant comprising ODN1826 (Average of CTL inducibility of the adjuvant group)/(Average of CTL inducibility of the ODN1826 group)=the ratio against average value In the case of an adjuvant comprising ODN2006 (Average of CTL inducibility of the adjuvant group)/(Average of CTL inducibility of the ODN2006 group)=the ratio against average value
CTL inducibility of each adjuvant was shown when CTL inducibility of ssCpG ODN was taken as 1, so the bigger value means the higher CTL inducibility.

[2] = system: B16F10 cells; assay: Anti-tumor effect of TRP2 peptide vaccine using an adjuvant; type: in vivo, mouse
Method: After immunization by TRP2 peptide vaccine, B16F10 cells (ATTC) which is mouse melanoma expressing TRP2 protein was subcutaneously transplanted to evaluate anti-tumor effect. […] The major and minor axes of the engrafted tumor were measured every 2 to 3 days, and the tumor volume was calculated by the formula: (major axis×minor axis^2)/2 Calculation method for indicators of anti-tumor effect For the adjuvant comprising ODN1826 100·(average tumor volume of adjuvant group)/(average tumor volume of ODN1826 group) For the adjuvant comprising ODN2006 100·(average tumor volume of adjuvant group)/(average tumor volume of ODN2006 group)

With Amph1826 [SEQ-2] the “Ratio of average value of antigen-specific CTL” value (from here on “Ratio … of antigen-specific CTL”) ([1]; Table 34, 1.57 nmol/head, ODN1826 (SEQ-1) group = 1) was 1.68, the “Ratio … of antigen-specific CTL” value ([1]; Table 36, 1.57 nmol/head (Montanide 100 μL), ODN1826 (SEQ-1) group = 1) was 3.23 and the “Ratio … of antigen-specific CTL” value ([1]; Table 37, 1.57 nmol/head, ODN1826 (SEQ-1) group = 1) was 3.11. For the same substance, the “CTL inducibility (in words)” value ([1]; adjuvants comprising ODN1826) was “higher CTL inducibility than ODN1826”, the “tumor inhibition rate compared to ODN1826” value ([2]; Day 12 after transplantation, Result 4-B, FIG. 3) was “about 3.5%” and the “tumor inhibition rate compared to ODN1826” value ([2]; Day 12 after transplantation, Result 6-B, FIG. 4) was 64.3%. The “tumor inhibition rate compared to ODN1826” value ([2]; Day 14 after transplantation, Result 7-B, FIG. 5) was “about 72.6%” and the “Tumor inhibition rate (Day 14 after transplantation)” value ([2]; Table 37, 1.57 nmol/head, compared to ODN1826 (SEQ-1)) was 72.64%.
For ODN2006 [SEQ-49], the “Ratio … of antigen-specific CTL” value ([1]; Table 38, 4.71 nmol/head, ODN2006 (SEQ-49) group = 1) was 1.00, the “Ratio … of antigen-specific CTL” value ([1]; Table 39, 4.71 nmol/head, ODN2006 (SEQ-49) group = 1) was 1.00 and the “Ratio … of antigen-specific CTL” value ([1]; Table 40, 4.71 nmol, ODN2006 (SEQ-49) group = 1) was 1.00. The “Ratio … of antigen-specific CTL” value ([1]; Table 41, 4.71 nmol, ODN2006 (SEQ-49) group = 1) was 1.00, the “Ratio … of antigen-specific CTL” value ([1]; Table 42, 4.71 nmol, ODN2006 (SEQ-49) group = 1) was 1.00 and the “Ratio … of antigen-specific CTL” value ([1]; Table 43, 4.71 nmol, ODN2006 (SEQ-49) group = 1) was 1.00. For the same substance, the “Ratio … of antigen-specific CTL” value ([1]; Table 44, 4.71 nmol, ODN2006 (SEQ-49) group = 1) was 1.00, the “Ratio … of antigen-specific CTL” value ([1]; Table 45, 4.71 nmol, ODN2006 (SEQ-49) group = 1) was 1.00 and the “Ratio … of antigen-specific CTL” value ([1]; Table 46, 4.71 nmol, ODN2006 (SEQ-49) group = 1) was 1.00. The “Ratio … of antigen-specific CTL” value ([1]; Table 47, 4.71 nmol, ODN2006 (SEQ-49) group = 1) was 1.00, the “Ratio … of antigen-specific CTL” value ([1]; Table 48, 4.71 nmol, ODN2006 (SEQ-49) group = 1) was 1.00 and the “Ratio … of antigen-specific CTL” value ([1]; Table 49, 4.71 nmol, ODN2006 (SEQ-49) group = 1) was 1.00. For the same substance, the “Ratio … of antigen-specific CTL” value ([1]; Table 50, 4.71 nmol, ODN2006 (SEQ-49) group = 1) was 1.00, the “Ratio … of antigen-specific CTL” value ([1]; Table 51, 4.71 nmol, ODN2006 (SEQ-49) group = 1) was 1.00 and the “Ratio … of antigen-specific CTL” value ([1]; Table 52, 4.71 nmol, ODN2006 (SEQ-49) group = 1) was 1.00. For the same substance, the “Ratio … of antigen-specific CTL” value ([1]; Table 53, 4.71 nmol, ODN2006 (SEQ-49) group = 1) was 1.00, the “Ratio … of antigen-specific CTL” value ([1]; Table 54, 4.71 nmol, ODN2006 (SEQ-49) group = 1) was 1.00 and the “Ratio … of antigen-specific CTL” value ([1]; Table 55, 4.71 nmol, ODN2006 (SEQ-49) group = 1) was 1.00. The “Ratio … of antigen-specific CTL” value ([1]; Table 57, 4.71 nmol, ODN2006 (SEQ-49) group = 1) was 1.00, the “Ratio … of antigen-specific CTL” value ([1]; Table 58, 4.71 nmol, ODN2006 (SEQ-49) group = 1) was 1.00 and the “Ratio … of antigen-specific CTL” value ([1]; Table 59, 4.71 nmol, ODN2006 (SEQ-49) group = 1) was 1.00. For the same substance, the “Ratio … of antigen-specific CTL” value ([1]; Table 60, 4.71 nmol, ODN2006 (SEQ-49) group = 1) was 1.00, the “Ratio … of antigen-specific CTL” value ([1]; Table 61, 4.71 nmol, ODN2006 (SEQ-49) group = 1) was 1.00 and the “Ratio … of antigen-specific CTL” value ([1]; Table 62, 4.71 nmol, ODN2006 (SEQ-49) group = 1) was 1.00. For the same substance, the “Ratio … of antigen-specific CTL” value ([1]; Table 63, 4.71 nmol, ODN2006 (SEQ-49) group = 1) was 1.00, the “Ratio of average value of antigen specific CTL” value ([1]; Table 64, 4.71 nmol, ODN2006 (SEQ-49) group = 1) was 1.00 and the “Ratio … of antigen-specific CTL” value ([1]; Table 67, 4.71 nmol, ODN2006 (SEQ-49) group = 1) was 1.00. For the same substance, the “Ratio … of antigen-specific CTL” value ([1]; Table 68, 4.71 nmol, ODN2006 (SEQ-49) group = 1) was 1.00, the “effect of inhibition on tumor progression of B16F10 cells (in words)” value [2] was “little effect of inhibition on tumor progression of B16F10 cells” and the “Tumor inhibition rate (Day 12 after transplantation)” value ([2]; Table 41, 4.71 nmol, compared to ODN2006 (SEQ-49)) was 0.00%. The “Tumor inhibition rate (Day 12 after transplantation)” value ([2]; Table 42, 4.71 nmol, compared to ODN2006 (SEQ-49)) was 0.00%, the “Tumor inhibition rate (Day 14 after transplantation)” value ([2]; Table 43, 4.71 nmol, compared to ODN2006 (SEQ-49)) was 0.00% and the “Tumor inhibition rate (Day 14 after transplantation)” value ([2]; Table 45, 4.71 nmol, compared to ODN2006 (SEQ-49)) was 0.00%. For the same substance, the “Tumor inhibition rate (Day 14 after transplantation)” value ([2]; Table 46, 4.71 nmol, compared to ODN2006 (SEQ-49)) was 0.00% and the “Tumor inhibition rate (Day 14 after transplantation)” value ([2]; Table 48, 4.71 nmol, compared to ODN2006 (SEQ-49)) was 0.00%.
